Assay results reported in article PMC11617653, “Macrocyclic Inhibitors Targeting the Prime Site of the Fibrinolytic Serine Protease Plasmin” (Chemmedchem, 2024).
Several values for one entry are separate records, joined by “and”; a condition that tells them apart may be missing. Equal values may be shown once. Positions of bridges follow the written chain, without caps; N, C: chain ends. Non-standard residues stand in square brackets, D forms with d. Residues, ends and D or L forms follow the SMILES beside them. Phe(4-NH2) = Nc1ccc(C[C@H](N)C(=O)O)cc1; Trx = NC[C@H]1CC[C@H](C(=O)O)CC1; βAla = NCCC(=O)O

What was measured:
Type in all cases: biochemical
[1] = target: T1, human plasmin (Homo sapiens, UniProt P00747); test: Inhibition of human plasmin, fluorogenic substrate Mes-DArg-Phe-Arg-AMC; conditions: for fold weaker plasmin inhibition than inhibitor 28: compared with cyclic inhibitor 28
T1 construct: purchased Calbiochem
T1 sequence (P00747 581-810): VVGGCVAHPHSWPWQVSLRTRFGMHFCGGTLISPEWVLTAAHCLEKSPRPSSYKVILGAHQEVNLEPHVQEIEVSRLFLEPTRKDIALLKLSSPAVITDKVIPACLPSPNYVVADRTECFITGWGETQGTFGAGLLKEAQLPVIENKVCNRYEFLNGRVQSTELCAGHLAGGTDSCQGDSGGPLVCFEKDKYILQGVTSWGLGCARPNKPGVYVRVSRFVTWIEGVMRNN
T1 sequence (P00747 97-580): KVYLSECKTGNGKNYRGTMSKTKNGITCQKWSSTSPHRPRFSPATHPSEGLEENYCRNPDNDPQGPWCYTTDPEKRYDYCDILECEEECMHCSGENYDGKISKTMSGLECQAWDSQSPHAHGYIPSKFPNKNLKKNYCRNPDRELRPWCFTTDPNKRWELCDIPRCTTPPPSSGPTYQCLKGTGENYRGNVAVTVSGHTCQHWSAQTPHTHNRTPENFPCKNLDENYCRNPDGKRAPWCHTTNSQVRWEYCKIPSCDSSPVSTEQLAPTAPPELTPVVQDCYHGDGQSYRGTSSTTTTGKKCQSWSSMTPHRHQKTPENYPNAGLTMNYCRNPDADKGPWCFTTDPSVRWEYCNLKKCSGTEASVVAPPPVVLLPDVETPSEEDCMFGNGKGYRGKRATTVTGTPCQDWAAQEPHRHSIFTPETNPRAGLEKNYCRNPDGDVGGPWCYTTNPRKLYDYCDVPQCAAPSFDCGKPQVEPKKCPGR
Description: All inhibitors prepared in this study act as reversible competitive plasmin inhibitors, their K i values were calculated by fitting the steady‐state velocities as function of the inhibitor concentrations using equation 1. 4‐aminophenylalanine (Phe(4‐NH2)) was incorporated as P1’ residue in the first inhibitor series, which enabled a macrocyclization via amide bond formation from its side chain amino group using various linker segments and P2’ residues (Table 1). […] The improved potency of SFTI‐1 analogues with basic P2’ residues[9] stimulated the incorporation of Arg in that position leading to inhibitor 4 with a slightly stronger inhibitory potency. A significant improvement could be achieved when using 3‐ or 4‐aminophenylacetic acid as P2’ group in combination with elongated linker residues (5‐6). […] However, inhibitor 9 is a twofold stronger plasmin inhibitor compared to its analogue 8.
For these inhibitors the steady‐state velocities were calculated by fitting the progress curves to equation 2 providing an additional apparent first‐order rate constant k obs for each curve. The steady‐state rates were used for K i determination with equation 1 and the k obs values for the calculation of the association rate constants k on according to equation 3. The dissociation rate constant k off was calculated from the known K i and k on values using equation 4. The enzyme kinetic evaluation of slow‐binding inhibitors of plasmin has already been described in detail in our two previous publications.[11, 12]
All measurements were conducted as triplicates in black 96‐well FluoroNunc MaxiSorp plates (Nunc, Langenselbold, Germany) and suitable fluorogenic substrates at room temperature. […] Each well contained a total volume of 180 μL consisting of 100 μL of inhibitor dissolved in buffer, 40 μL of the substrate Mes‐DArg‐Phe‐Arg‐AMC[11] (100 μM in assay, KM=16.1 μM) dissolved in water and 40 μL of plasmin solution (0.27 nM in assay). The following equations were used for the enzyme kinetic analysis as described in the results section and in our previous publications.[11, 12] (1) [drawing 71] (2) [drawing 72] (3) [drawing 73] (4) [drawing 74]

[2] = target: activated protein C (aPC) (Homo sapiens, UniProt P04070); test: Selectivity: inhibition of activated protein C; conditions: deduced from pre-assays with only three inhibitor concentrations; read-out: aPC K i
Chain of activated protein C (aPC) (P04070 43-197): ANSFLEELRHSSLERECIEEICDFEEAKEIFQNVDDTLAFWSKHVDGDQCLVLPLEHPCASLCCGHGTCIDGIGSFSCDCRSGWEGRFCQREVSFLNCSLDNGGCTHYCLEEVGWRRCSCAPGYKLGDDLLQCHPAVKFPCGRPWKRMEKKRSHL
Chain of activated protein C (aPC) (P04070 212-461): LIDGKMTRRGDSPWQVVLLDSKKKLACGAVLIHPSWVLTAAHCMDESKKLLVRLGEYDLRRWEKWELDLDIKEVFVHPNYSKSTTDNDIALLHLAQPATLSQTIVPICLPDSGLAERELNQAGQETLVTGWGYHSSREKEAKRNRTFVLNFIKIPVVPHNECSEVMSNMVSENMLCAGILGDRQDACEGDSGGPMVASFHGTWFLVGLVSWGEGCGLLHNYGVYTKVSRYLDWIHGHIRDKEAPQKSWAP
Description: (§1) For these three proteases a selectivity index (SI=K i(protease)/K i(plasmin)) was calculated, which is provided in brackets after the inhibition constants (Table 3).
(§2) The measurements with the related trypsin‐like serine proteases trypsin, plasma kallikrein, factor XIa, thrombin, activated protein Ca and factor Xa used in selectivity studies were performed as described previously.[11, 12]

[3] = target: plasma kallikrein (PK) (Homo sapiens, UniProt P03952); test: Selectivity: inhibition of plasma kallikrein; conditions: for PK selectivity index K i(protease)/Ki(plasmin): in brackets; for Ki: read-out: PK K i
Chain of plasma kallikrein (PK) (P03952 391-638): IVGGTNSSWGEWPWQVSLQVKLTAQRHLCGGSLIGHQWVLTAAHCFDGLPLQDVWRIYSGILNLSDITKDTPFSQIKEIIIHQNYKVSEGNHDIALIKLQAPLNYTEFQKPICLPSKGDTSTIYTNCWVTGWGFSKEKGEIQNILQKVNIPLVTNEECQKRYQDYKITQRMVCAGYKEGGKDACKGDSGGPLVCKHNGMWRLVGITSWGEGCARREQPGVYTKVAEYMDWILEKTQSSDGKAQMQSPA
Chain of plasma kallikrein (PK) (P03952 20-390): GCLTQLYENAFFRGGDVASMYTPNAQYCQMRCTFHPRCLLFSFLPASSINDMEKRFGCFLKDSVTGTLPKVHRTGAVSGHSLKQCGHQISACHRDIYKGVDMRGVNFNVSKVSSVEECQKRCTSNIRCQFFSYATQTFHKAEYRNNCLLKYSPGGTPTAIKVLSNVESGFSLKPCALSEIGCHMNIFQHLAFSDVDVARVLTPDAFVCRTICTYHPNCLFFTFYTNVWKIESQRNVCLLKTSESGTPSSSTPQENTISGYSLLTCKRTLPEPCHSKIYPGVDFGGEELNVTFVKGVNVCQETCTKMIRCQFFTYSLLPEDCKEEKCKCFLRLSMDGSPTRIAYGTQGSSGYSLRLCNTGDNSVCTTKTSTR
Description: as §1, §2

[4] = target: thrombin (Homo sapiens, UniProt P00734); test: Selectivity: inhibition of thrombin; conditions: deduced from pre-assays with only three inhibitor concentrations; read-out: Thrombin K i
Description: as §1, §2

[5] = target: factor XIa (fXIa) (Homo sapiens, UniProt P03951); test: Selectivity: inhibition of factor XIa; conditions: for fXIa selectivity index K i(protease)/Ki(plasmin): in brackets; for Ki: read-out: fXIa K i
Chain of factor XIa (fXIa) (P03951 19-387): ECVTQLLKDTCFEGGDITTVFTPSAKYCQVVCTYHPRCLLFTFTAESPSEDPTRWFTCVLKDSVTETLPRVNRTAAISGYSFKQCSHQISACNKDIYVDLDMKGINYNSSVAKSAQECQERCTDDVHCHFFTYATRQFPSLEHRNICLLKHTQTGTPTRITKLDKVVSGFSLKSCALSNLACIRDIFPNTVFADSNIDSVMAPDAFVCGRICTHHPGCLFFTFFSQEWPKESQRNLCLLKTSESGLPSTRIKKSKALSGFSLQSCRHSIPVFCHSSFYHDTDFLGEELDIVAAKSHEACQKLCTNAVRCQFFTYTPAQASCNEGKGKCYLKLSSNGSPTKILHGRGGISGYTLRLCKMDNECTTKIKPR
Chain of factor XIa (fXIa) (P03951 388-625): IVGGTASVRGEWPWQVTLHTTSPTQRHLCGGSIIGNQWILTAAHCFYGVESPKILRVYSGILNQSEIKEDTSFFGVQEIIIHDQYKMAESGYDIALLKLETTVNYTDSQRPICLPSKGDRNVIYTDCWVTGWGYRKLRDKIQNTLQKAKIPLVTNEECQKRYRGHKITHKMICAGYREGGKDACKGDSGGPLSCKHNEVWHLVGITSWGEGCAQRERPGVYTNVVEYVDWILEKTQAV
Description: as §1, §2

[6] = target: factor Xa (fXa) (Homo sapiens, UniProt P00742); test: Selectivity: inhibition of factor Xa; conditions: deduced from pre-assays with only three inhibitor concentrations; read-out: fXa K i
Chain of factor Xa (fXa) (P00742 41-179): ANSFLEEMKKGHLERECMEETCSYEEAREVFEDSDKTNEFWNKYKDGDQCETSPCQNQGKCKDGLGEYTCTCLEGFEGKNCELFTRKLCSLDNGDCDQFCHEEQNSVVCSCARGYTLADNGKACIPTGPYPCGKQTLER
Chain of factor Xa (fXa) (P00742 235-488): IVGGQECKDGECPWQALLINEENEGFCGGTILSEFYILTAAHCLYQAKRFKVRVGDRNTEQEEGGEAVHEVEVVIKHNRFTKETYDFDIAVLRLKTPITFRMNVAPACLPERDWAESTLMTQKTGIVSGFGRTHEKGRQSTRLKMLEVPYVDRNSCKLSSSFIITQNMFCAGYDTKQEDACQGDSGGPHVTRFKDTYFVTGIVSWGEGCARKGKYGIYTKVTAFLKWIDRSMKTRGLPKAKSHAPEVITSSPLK
Description: as §1, §2

[7] = K i (nM), inhibition of plasmin, series two, substituted Bpa in P1', and acyclic analogues, steady-state velocities, equation 1
[8] = Plasmin K i, Table 3 selectivity
[9] = K i (μM), inhibition of plasmin, series one, 4-aminophenylalanine in P1', steady-state velocities, equation 1

Structure (SMILES): Cc1ccc2cc1NC(=O)CNC(=O)CCCNC(=O)Cc1cccc(c1)NC(=O)[C@@H](NC(=O)[C@H]1CC[C@H](CN)CC1)Cc1ccc-2cc1 [inhibitor 40]
- Ki [1, 7]: 9.47 ± 0.75 nM
- Ki [1, 8]: 9.47 nM
- Ki [2]: > 40000 nM
- PK selectivity index K i(protease)/Ki(plasmin) [3]: 14
- Ki [3]: 120 ± 10 nM
- Ki [4]: > 80000 nM
- fXIa selectivity index K i(protease)/Ki(plasmin) [5]: 13
- Ki [5]: 110 ± 10 nM
- Ki [6]: > 9000 nM

Structure (SMILES): Cc1ccc2cc1NC(=O)CNC(=O)CCNC(=O)Cc1ccc(cc1)NC(=O)[C@@H](NC(=O)[C@H]1CC[C@H](CN)CC1)Cc1ccc-2cc1 [inhibitor 25]
- Ki [1, 7]: 33.8 ± 1.4 nM
- fold weaker plasmin inhibition than inhibitor 28 [1]: at least 20 fold

Structure (SMILES): Cc1ccc2cc1NC(=O)C1CCC(CC1)CNC(=O)Cc1ccc(cc1)NC(=O)C(NC(=O)C1CCC(CN)CC1)Cc1ccc-2cc1 (centres unmarked) [inhibitor 23]
- Ki [1, 7]: 109 ± 4 nM

Structure (SMILES): CC(C)C[C@H]1NC(=O)CCNC(=O)Cc2ccc(cc2)NC(=O)[C@@H](NC(=O)[C@H]2CC[C@H](CN)CC2)Cc2ccc(cc2)NC1=O [inhibitor 11]
- Ki [1, 9]: 3850 ± 280 nM

Structure (SMILES): CC(C)NC(=O)c1ccc2cc1NC(=O)CNC(=O)CCCNC(=O)Cc1ccc(cc1)NC(=O)C(NC(=O)C1CCC(CN)CC1)Cc1ccc-2cc1 [inhibitor 33, (S)‐4‐((1r,4S)‐4‐(aminomethyl)cyclohexane‐1‐carboxamido)‐N‐isopropyl‐5,9,14,17‐tetraoxo‐6,10,15,18‐tetraaza‐1(1,3),2,7(1,4)‐tribenzenacyclooctadecaphane‐14‐carboxamide]
- Ki [1, 7]: 0.52 nM and 0.524 nM
- Ki [1, 8]: 0.524 nM
- Ki [2]: > 35000 nM
- PK selectivity index K i(protease)/Ki(plasmin) [3]: 21
- Ki [3]: 9.4 ± 2.1 nM
- Ki [4]: > 45000 nM
- fXIa selectivity index K i(protease)/Ki(plasmin) [5]: 18
- Ki [5]: 8.1 ± 1.6 nM
- Ki [6]: > 10000 nM

Structure (SMILES): Cc1ccc2cc1NC(=O)CCCNC(=O)CNC(=O)Cc1ccc(cc1)NC(=O)[C@@H](NC(=O)[C@H]1CC[C@H](CN)CC1)Cc1ccc-2cc1 [inhibitor 27]
- Ki [1, 7]: 17 ± 0.6 nM
- fold weaker plasmin inhibition than inhibitor 28 [1]: at least 20 fold

Structure (SMILES): NC[C@H]1CC[C@H](C(=O)N[C@H]2Cc3ccc(cc3)NC(=O)[C@H](Cc3ccccc3)NC(=O)CCNC(=O)Cc3ccc(cc3)NC2=O)CC1 [inhibitor 12, (1r,4S)‐4‐(aminomethyl)‐N‐((4S,9S)‐9‐benzyl‐3,8,11,15‐tetraoxo‐2,7,10,14‐tetraaza‐1,6(1,4)‐dibenzenacyclohexadecaphane‐4‐yl)cyclohexane‐1‐carboxamide]
- Ki [1, 9]: 710 nM and 714 nM

Structure (SMILES): NC[C@H]1CC[C@H](C(=O)N[C@H]2Cc3ccc(cc3)NC(=O)CCCCCNC(=O)Cc3ccc(cc3)NC2=O)CC1 [inhibitor 6]
- Ki [1, 9]: 1380 ± 150 nM

Structure (SMILES): N=C(N)NCCC[C@@H]1NC(=O)[C@@H](NC(=O)[C@H]2CC[C@H](CN)CC2)Cc2ccc(cc2)NC(=O)CCNC1=O [inhibitor 4] (H-[Trx][Phe(4-NH2)]R[βAla]; lactam 2-C)
- Ki [1, 9]: 110000 ± 56000 nM

Structure (SMILES): NC[C@H]1CC[C@H](C(=O)N[C@H]2Cc3ccc(cc3)NC(=O)CCNC(=O)CNC(=O)Cc3ccc(cc3)NC2=O)CC1 [inhibitor 8]
- Ki [1, 9]: 5530 ± 420 nM

Structure (SMILES): Cc1ccc2cc1NC(=O)Cc1ccc(cc1)NC(=O)Cc1ccc(cc1)NC(=O)[C@@H](NC(=O)[C@H]1CC[C@H](CN)CC1)Cc1ccc-2cc1 [inhibitor 24]
- fold enhanced plasmin potency compared with compound 22 [1]: 4 fold
- Ki [1, 7]: 10.5 ± 1.4 nM

Structure (SMILES): Cc1ccc2cc1NC(=O)CCCN1CCN(CC1)C(=O)Cc1ccc(cc1)NC(=O)[C@@H](NC(=O)[C@H]1CC[C@H](CN)CC1)Cc1ccc-2cc1 [inhibitor 36]
- Ki [1, 7]: 112 ± 6 nM

Structure (SMILES): Cc1ccc2cc1NC(=O)CNC(=O)CCCCNC(=O)c1ccc3cc(ccc3c1)NC(=O)[C@@H](NC(=O)[C@H]1CC[C@H](CN)CC1)Cc1ccc-2cc1 [inhibitor 43]
- Ki [1, 7]: 5.14 ± 0.27 nM

Structure (SMILES): Cc1ccc2cc1NC(=O)CCN1CCN(CC1)C(=O)Cc1ccc(cc1)NC(=O)[C@@H](NC(=O)[C@H]1CC[C@H](CN)CC1)Cc1ccc-2cc1 [inhibitor 37]
- Ki [1, 7]: 13 ± 0.2 nM

Structure (SMILES): Cc1ccc2cc1NC(=O)[C@H](N)CCCCNC(=O)Cc1ccc(cc1)NC(=O)[C@@H](NC(=O)[C@H]1CC[C@H](CN)CC1)Cc1ccc-2cc1 [inhibitor 34]
- Ki [1, 7]: 36.5 ± 0.7 nM

Structure (SMILES): Cc1ccc2cc1NC(=O)CNC(=O)CCCNC(=O)Cc1cccc(c1)CNC(=O)[C@@H](NC(=O)[C@H]1CC[C@H](CN)CC1)Cc1ccc-2cc1 [inhibitor 42]
- Ki [1, 7]: 284 ± 24 nM
